# According to US10501494B2, “Uses of peptides to treat brain injury and disease” (priority 2013, dated 2019):
# Like-named read-outs stand apart in the source and are kept apart here.
# How the values were obtained:
# [1] = system: chemokine receptor 8 (CCR8); assay: Blocking of chemokine receptor 8; type: cell-based
# Source text: The peptides share activity to block diverse chemokine receptors. […] Thus again, with a different receptor target, the all-D peptide performs very similarly to its mostly L-amino acid prototype first described in Pert, 1986. (FIG. 3).
# [2] = Survival of MethA ascites tumor-bearing mice treated with LPS; type: in vivo; details: 1 mg/Kg, 50 μgm LPS i.p.; vehicle control 5/20
# Experimental: Associated with the injection of LPS is the extensive production of tumor necrosis factor alpha (TNF-α). Mice injected with recombinant human TNF-α develop pilo erection of the hair (ruffling), diarrhea and a withdrawn and unkempt appearance, followed by death if sufficient amounts are given. Rats treated with TNF become hypotensive, tachypneic and die of sudden respiratory arrest. Administration of DAPTA (1 mg/Kg) to MethA ascites tumor-bearing mice that were treated with 50 μgm LPS by i.p. injection, had better survival (15/20 in the DAPTA treated group compared to 5/20 in the vehicle control treated group). Thus DAPTA blocks septic shock via innate immune pathways, like the Toll receptors, that cause inflammation in the brain and that are typically activated in injuries.
# [3] = molecular target: CCL2 (MCP-1) chemotaxis, CCR5/CCR2 (Homo sapiens, UniProt P41597); details: human monocytes, FIG. 1
# Source text: Triplicate determinations were made and results are expressed as the mean plus or minus SEM. The experiment shown is a direct comparison among all RAPs. Statistical analysis was by unpaired t-test, with significance set at the p<0.01 (*) level for difference from CCL2 only chemotaxis.
# [4] = system: microglial and astrocytes; details: daily peripheral administration, hippocampus; cited from earlier work
# inflammatory cytokines [5] = details: Hu; Ruff, 2003; cited from earlier work
# inflammatory cytokines [6] = details: Rat; unpublished
# inflammatory cytokines [7] = details: Rat; Padi, 2012; cited from earlier work
# [8] = nerve injury model; Padi; cited from earlier work
# CCL2/CCR2 = CCL2/CCR2 (Homo sapiens, UniProt P41597); details: human monocytes
# MIP-1β (CCL4)/CCR5 = MIP-1β (CCL4)/CCR5 (Homo sapiens, UniProt P51681); details: low (sub-pM) concentrations, MIP-1β 50 ng/mL, monocytes treated with GM-CSF for 48 hours
# Source text: It is compared for biopotency with an all-D amino acid close analog whereby all of the amino acids are made in the D form (RAP-310) to block the CCR5 chemokine receptors.
# Data are the average of triplicate determinations. Data are presented as Mean±SEM.
# CCR2 (MCP-1) = molecular target: T1, CCR2 (MCP-1) (Homo sapiens, UniProt P41597); assay: MCP-1 elicited chemotaxis of human monocytes, all-D-pentapeptides (FIG. 2); type: cell-based; details: 20 pM peptide for 30 minutes, MCP-1 0.6 nM for 2 hours, purified human monocytes
# T1 construct: Purified human monocytes were treated with 20 pM of All-D-pentapeptides; endogenous in cells; host or cells: purified human monocytes
# Source text: A representative experiment is shown comprising triplicate determinations and is presented as relative fluorescence units, Mean±SEM.
# T1 sequence (P41597 whole entry): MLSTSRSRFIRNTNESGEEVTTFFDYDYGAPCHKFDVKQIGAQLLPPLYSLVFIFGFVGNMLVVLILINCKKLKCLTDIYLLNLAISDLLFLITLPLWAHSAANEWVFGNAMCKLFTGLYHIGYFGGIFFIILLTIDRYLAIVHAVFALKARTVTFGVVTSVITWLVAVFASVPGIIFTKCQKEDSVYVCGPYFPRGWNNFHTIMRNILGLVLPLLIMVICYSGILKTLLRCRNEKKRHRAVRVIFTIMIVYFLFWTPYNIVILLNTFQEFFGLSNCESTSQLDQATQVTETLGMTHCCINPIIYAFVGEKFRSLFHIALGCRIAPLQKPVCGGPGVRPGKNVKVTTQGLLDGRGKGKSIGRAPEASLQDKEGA
# Sequence of CCL2/CCR2 (P41597 whole entry): as above
# Sequence of CCL2 (MCP-1) chemotaxis, CCR5/CCR2 (P41597 whole entry): as above
# Sequence of MIP-1β (CCL4)/CCR5 (P51681 whole entry): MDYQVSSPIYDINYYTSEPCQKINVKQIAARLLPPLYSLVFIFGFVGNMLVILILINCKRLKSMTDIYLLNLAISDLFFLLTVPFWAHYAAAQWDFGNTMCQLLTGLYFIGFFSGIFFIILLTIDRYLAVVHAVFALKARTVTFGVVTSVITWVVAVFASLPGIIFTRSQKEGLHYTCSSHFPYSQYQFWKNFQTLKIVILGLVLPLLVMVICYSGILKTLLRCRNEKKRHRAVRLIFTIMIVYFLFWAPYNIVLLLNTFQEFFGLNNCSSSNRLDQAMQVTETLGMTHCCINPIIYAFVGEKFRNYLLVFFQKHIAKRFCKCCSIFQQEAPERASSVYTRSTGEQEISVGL
compound,measurement,setting,value
"C[C@@H](N)C(=O)N[C@@H](CO)C(=O)N[C@H](C(=O)N[C@H](C(=O)N[C@H](C(=O)N[C@@H](CC(N)=O)C(=O)N[C@@H](Cc1ccc(O)cc1)C(=O)N[C@H](C(N)=O)[C@@H](C)O)[C@@H](C)O)[C@@H](C)O)[C@@H](C)O [RAP-101, D-Ala1-STTTNYT-NH2]",blocking of CCR8,[1],blocks
same,survival,[2],15/20
same,potency to block CCL2 (MCP-1) chemotaxis,[3],most potent
same,"inflammatory response induced by LPS (number and reactive state of microglial and astrocytes, NFkB expression)",[4],dramatically attenuated
same,IL-1 change,inflammatory cytokines [5],decrease
same,IL-6 change,inflammatory cytokines [5],decrease
same,IL-8 change,inflammatory cytokines [5],decrease
same,TNF-α change,inflammatory cytokines [5],decrease
"C[C@H](O)[C@@H](N)C(=O)N[C@@H](C(=O)N[C@H](CC(N)=O)C(=O)N[C@H](Cc1ccc(O)cc1)C(=O)N[C@@H](C(=O)O)[C@H](C)O)[C@H](C)O [RAP-103, All-D-TTNYT]",CCL2 change,inflammatory cytokines [6],decrease
same,CCL3 change,inflammatory cytokines [6],decrease
same,CCR2 change,inflammatory cytokines [6],decrease
same,CCR5 change,inflammatory cytokines [6],decrease
same,MCP-1 change,inflammatory cytokines [6],decrease
same,MIP-1α change,inflammatory cytokines [6],decrease
same,TNF-α change,inflammatory cytokines [6],decrease
same,IL-1β change,inflammatory cytokines [7],decrease
same,IL-6 change,inflammatory cytokines [7],decrease
same,"inflammation, cytokine secretion and monocyte infiltration",[8],blocks
C[C@H](O)[C@@H](NC(=O)[C@@H](Cc1ccc(O)cc1)NC(=O)[C@@H](CC(N)=O)NC(=O)[C@H](NC(=O)[C@H](NC(=O)[C@H](NC(=O)[C@@H](CO)NC(=O)[C@@H](C)N)[C@H](C)O)[C@H](C)O)[C@H](C)O)C(=O)O [RAP-310],blocking of CCR8,[1],comparable potency
same,loss of potency in blocking CCL2-elicited chemotaxis compared to RAP-101,CCL2/CCR2,minimal loss of potency
same,potency to block CCR5-mediated human monocyte chemotaxis,MIP-1β (CCL4)/CCR5,comparable potency
Asn-Thr-Arg-Tyr-Arg,inhibition of MCP-1 elicited chemotaxis,CCR2 (MCP-1),efficacious
Asn-Thr-Ser-Tyr-Arg (NTSYR; Human immunodeficiency virus),inhibition of MCP-1 elicited chemotaxis,CCR2 (MCP-1),efficacious
Asn-Thr-Ser-Tyr-Gly (NTSYG; Human immunodeficiency virus),inhibition of MCP-1 elicited chemotaxis,CCR2 (MCP-1),efficacious
Glu-Thr-Trp-Tyr-Ser (ETWYS; Human immunodeficiency virus),inhibition of MCP-1 elicited chemotaxis,CCR2 (MCP-1),efficacious
Ile-Asn-Asn-Tyr-Thr (INNYT; Human immunodeficiency virus),inhibition of MCP-1 elicited chemotaxis,CCR2 (MCP-1),efficacious
Ile-Asp-Asn-Tyr Thr (IDNYT; Human immunodeficiency virus),inhibition of MCP-1 elicited chemotaxis,CCR2 (MCP-1),efficacious
Ser-Ser-Thr-Tyr-Arg (SSTYR; Human immunodeficiency virus),inhibition of MCP-1 elicited chemotaxis,CCR2 (MCP-1),efficacious
Thr-Thr-Ser-Tyr-Thr (TTSYT; Human immunodeficiency virus),inhibition of MCP-1 elicited chemotaxis,CCR2 (MCP-1),efficacious
